From PubChem BioAssay (NCI) come the findings set out here.

“And” between values parts separate entries of the source, which are not always exact repeats. Identical values can stand only once.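 Exposure lasted 48 hours, with cells grown in 96-well plates and compounds tested at five concentrations. GI50 = concentration required for 50% inhibition of growth. TGI marks complete inhibition of growth.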

Test in all cases: inhibition of tumour cell growth, NCI panel, 48 h
The test system of test [1] is CAKI-1 renal.
Test [2] relates to DLD-1 colon.
Test [3] concerns DMS 273 small cell lung.
The test system of test [4] is KM20L2 colon.
The test system of test [5] is LXFL 529 NSCLC.
Test [6] has as its system NCI-H522 lung.
In test [7] the test system is UO-31 renal.
Test [8] relates to DU-145 prostate.
For test [9], the system named is MDA-MB-435.
Test [10] deals with PC-3 prostate.

On to `CC/C=C1\N=C(c2ccc(Cl)cc2)OC1=O`, for which the TGI in test [1], in test [2], in test [3], in test [4], in test [5] and in [6] was over 100 µM in each case. The compound further displayed a TGI in [7] of over 100 µM.

As to `COc1ccc(/C=C2\CCCCC2=O)cc1`, the TGI in test [1], in test [2], in test [3], in test [4], in test [5] and in [7] was over 100 µM throughout.

Regarding `CCn1cc(/C=C/C(C)c2cn(CC)c(=O)[nH]c2=O)c(=O)[nH]c1=O` (stereo not given), the TGI in test [1], in test [2], in [3], in test [4], in test [5] and in test [6] was over 100 µM each time. In test [7], this compound yielded a TGI of over 100 µM.

On to `CCC[CH2][Sn]([CH2]CCC)([O]C(=O)c1cc(F)cc(F)c1)[O]C(=O)c1cc(F)cc(F)c1`, for which the GI50 in [2] is 727 nM; in test [3] it was 1250 nM; in test [4] it was 1610 nM; in [5], 171 nM; in test [6], 137 nM; in test [7] it was 1440 nM. Also, the TGI in test [2] came to 2 µM; in test [3], 2.5 µM; in test [4] it was 3.44 µM; in test [5], 0.607 µM; in test [6], 0.269 µM; in test [7], 2.75 µM.

As for `COC1=CC(O)(CC(N)=O)c2ccccc2C1=O` (stereo not given), the TGI in test [1], in [2], in test [3], in [4], in [5] and in test [6] was over 100 µM throughout. Besides, the TGI in test [7] is over 100 µM.

With `Cc1ccc(-c2nc(SCC(=O)O)n[nH]2)cc1`, the TGI in [1], in test [2], in test [3], in test [4], in [5] and in [6] was over 100 µM throughout. The compound also had a TGI in [7] of over 100 µM.

For `CC(=O)C1CC=C(C)CC1` (stereo not given), the TGI in test [1], in test [2], in test [3], in [4], in test [5] and in test [6] was over 100 µM in each case. The compound further gave a TGI in [7] of over 100 µM.

On to `Brc1ccc(-c2nnc(-c3nn(-c4ccccc4)c4nc5ccccc5nc34)o2)cc1`, for which the TGI in test [1], in test [2], in [3], in test [4], in test [5] and in test [6] was over 100 µM in each case. This compound also had a TGI in test [7] of over 100 µM.

For `N#CC(C(=O)/C(=N\Nc1nc(=S)[nH]n1N)C(C#N)c1ccc(Cl)cc1)c1ccc(Cl)cc1` (stereo not given), the TGI in [1], in test [2], in test [3], in test [4], in test [5] and in [7] was over 100 µM in each case.

As to `CC[C@H]1CN2CCc3cc(OC)c(OC)cc3[C@@H]2C[C@@H]1C[C@H]1NCCc2cc(O)c(OC)cc21`, the TGI is 0.0847 µM and 0.375 µM in [1]; 0.0454 µM and 0.356 µM in test [2]; 63.7 nM and 137 nM in [8]; 0.0302 µM and 0.136 µM in test [4]; 0.0377 µM and 0.156 µM in test [9]; 0.15 µM and 1.17 µM in test [7]. Further, the GI50 in test [8] was 0.0233 µM; in test [5] it was 11.8 nM; in test [9], 0.0183 µM; in test [10], 0.0243 µM.

`COc1ccc(/C(Cl)=C(\C=O)c2ccc([N+](=O)[O-])cc2)cc1OC`: the TGI in test [1] is 26.4 µM; in test [3], 32 µM; in test [8] it was over 100000 nM; in test [4], 25.5 µM; in test [5], 13.7 µM; in [9], 13.5 µM. Further, the TGI in test [6] was over 35.8 µM; in test [10] it was 48.1 µM; in [7], 28.9 µM.

Regarding `CC(C)(C)NN=C1C(C)(C)C(=NNC(C)(C)C)C1(C)C`, the TGI in [1], in [2], in [3], in test [4], in test [5] and in test [6] was over 100 µM in each case. For the same compound, the TGI in [7] is over 100 µM.

For `Cc1ccc(NC(=O)c2cccc([N+](=O)[O-])c2O)c([N+](=O)[O-])c1`, the TGI in [1] is over 100 µM; in [2] it was 39.9 µM; in [3], 26.2 µM; in [4] it was 70.4 µM; in [5], 27.9 µM; in [6], 29.5 µM. The TGI in [7] was 45.4 µM.

In the case of `Cc1cc(N(CCC#N)S(C)(=O)=O)ccc1C=O`, the TGI in [1], in test [2], in test [3], in [4], in test [5] and in test [6] was over 100 µM in each case. In test [7], this compound gave a TGI of over 100 µM.

Take `O=C(CC1(O)C(=O)Nc2ccccc21)c1ccccc1Cl` (stereo not given): the TGI in [1], in test [2], in [3], in [4], in [5] and in test [6] was over 100 µM in each case. Further, the TGI in test [7] is over 100 µM.

For the compound `CC1C[C@H](OC(N)=O)C(C)CC1=O` (stereo not given in full), the TGI in [1], in [2], in test [3], in [4], in test [5] and in test [7] was over 100 µM each time.

For the compound `CCCN(CCCC(NC(C)=O)C(=O)NCc1ccccc1)C(=O)NC` (stereo not given), the TGI in [1], in test [2], in test [3], in test [4], in test [5] and in [6] was over 100 µM in each case. In addition, the TGI in test [7] was over 100 µM.

For `COc1ccc2oc3c4c2c1CCC4CCC3=O` (stereo not given), the TGI in test [3] was over 100 µM; in test [5] it was over 100 µM; in test [6] it was over 100 µM; in test [7], 99.5 µM.

On to `N/N=C1\C(=O)N(C2CCCCC2)C(=O)C1C(=O)NC1CCCCC1` (stereo not given), for which the TGI in test [1] was over 100 µM; in test [2], over 100 µM; in test [4] it was 39.9 µM; in test [5], over 100 µM; in [6], over 100 µM; in test [7], over 100 µM.

For `CC1=CC(=O)CCC2(C)C1CC[C@@H]2OC=O` (stereo not given in full), the TGI in test [1], in test [2], in test [3], in test [4], in [5] and in [6] was over 100 µM in each case. The same compound displayed a TGI in test [7] of over 100 µM.

As for `Cc1cc2c(=O)n(-c3ccc(F)cc3)c(C)nc2c(C(=O)O)c1C`, the TGI in [1], in [2], in [3], in [4], in test [5] and in test [7] was over 100 µM in each case.

For the compound `CSC(C1c2ccccc2N(C)C2=NC(=O)N(C)C(=O)C21Cl)S(=O)(=O)c1ccc(C)cc1` (stereo not given), the TGI in [1] is 48 µM; in [2], over 100 µM; in test [3], 75 µM; in test [4], over 100 µM; in test [5], 57.7 µM; in [6], 30.8 µM. Moreover, the TGI in test [7] was over 100 µM.

For the compound `CCOC(=O)N1CCc2cc(OC)c(OC)c3c2C1CC3=O` (stereo not given), the TGI in test [1], in [2], in [3], in test [4], in test [5] and in test [6] was over 100 µM in each case. In addition, the TGI in test [7] was over 100 µM.

In the case of `CN1C2(c3ccccc3)c3c(-c4ccccc4)sc(-c4ccccc4)c3C1(c1ccccc1)C1C(=O)N(c3ccccc3)C(=O)C12` (stereo not given), the TGI in test [1], in [2], in test [3], in [4], in test [5] and in test [6] was over 100 µM throughout. Besides, the TGI in test [7] was over 100 µM.

`CN(C)c1ccc(/C=C(/NC(=O)c2ccccc2)c2nc3ccc(Cl)cc3[nH]2)cc1`: the TGI in test [1] was over 100 µM; in test [2], over 100 µM; in test [3], over 100 µM; in test [8] it was over 100000 nM; in test [4] it was 84.8 µM; in test [5], 97.4 µM. For the same compound, the TGI was over 100 µM in [9], over 74.1 µM in [6], over 100 µM in test [10] and over 100 µM in test [7]. The GI50 in test [8] was 71.5 µM; in [9] it was 29.8 µM; in test [10] it was 29.2 µM.

Take `COc1ccc(C(O)/C(=N\NC(N)=S)c2nc3ccc([N+](=O)[O-])cc3[nH]c2=O)cc1OC` (stereo not given): the TGI in test [2], in test [3], in test [4], in [5], in test [6] and in test [7] was over 100 µM each time.

Take `CCn1c2c(n(CC)c1=S)-c1c(n(CC)c(=S)n1CC)SSSS2`: the TGI was 33.1 µM in test [1]; 5.73 µM in test [2]; 33.1 µM in test [3]; over 100000 nM in [8]; 29.5 µM in test [4]; 5.97 µM in [5]. The TGI in [9] was 27.5 µM; in [6] it was 3.76 µM; in test [7] it was 21.5 µM.

Consider `C[C@]12CCC[C@H](Cl)C1(O)C[C@H](C(=O)O)CC2` (stereo not given in full), for which the TGI in test [1], in test [2], in test [3], in test [4], in test [5] and in [6] was over 100 µM throughout. In test [7], this compound returned a TGI of over 100 µM.
